Values joined by “and” are separate entries in the source; they are usually repeats but may differ in a detail not shown here. Equal values may be shown once.
Experiments:
[1] = tested on: wild type tobacco; assay: Kill curve of glyphosate in tissue culture; format: in vivo, Nicotiana tabaccum var Samsun; conditions: 0.005 mM in MS medium, two weeks
Description: Selection on glyphosate A kill curve is constructed for growth of tobacco in tissue culture on glyphosate containing medium. This is done by inserting a stem segment ˜6 mm long and carrying a leaf node into MS medium containing a range of glyphosate isopropylamine concentrations. Four/five stem segments are used at each concentration.

[2] = tested on: pDV6 plants expressing both glyphosate resistance genes and GST; assay: Pre-em/post-em herbicide treatment of DV6 plants (Table 1); parameters: species or system Tobacco; conditions: in vivo
[3] = tested on: DV6/HPPD tobacco; assay: Herbicide trial of DV6/HPPD cross (Example 10); format: in vivo; conditions: 800 g/ha on seedlings surviving 300 g/ha ZA1296
[4] = tested on: primary transformants from pDV6-Bin; assay: Growth on herbicide-containing tissue culture medium; format: in vivo, Tobacco; conditions: a number of transgenics; 0.01 and 0.05 mM glyphosate; 10 and 40 ppm alachlor
[5] = tested on: Wildtype tobacco; assay: Glyphosate spray test (Table 8 control); format: in vivo, Nicotiana tabaccum var Samsun
Experimental: (§1) A kill curve is established for the effect of glyphosate on wild type tobacco. Wild type tobacco growing in tissue culture is sub-cultured by taking stem segments and growing in fresh medium to generate 20 new plants. These are grown in tissue culture for one month before transfer to 3 inch pots in John Innes No 3 compost. They are initially covered in fleece to protect them. After uncovering they are allowed to acclimatise for four days before being sprayed. After spraying watering is only into the saucers i.e. no water is allowed to touch the leaves for five days. Scoring was done 8 days and 28 days after treatment.
(§2) Following construction of the glyphosate kill curve, a number of pDV1, 2 and 3 lines are spray tested with appropriate rates of glyphosate.

[6] = tested on: Wild type plants; assay: Pre-em/post-em herbicide treatment (Table 1); format: in vivo, Tobacco; conditions: post-em 800 g/ha
[7] = tested on: wild type controls; assay: Growth on herbicide-containing tissue culture medium; format: in vivo, Tobacco; conditions: 0.01 and 0.05 mM glyphosate; 10 and 40 ppm alachlor
[8] = tested on: tobacco from cross DV3 #43B x ET4-208; assay: Glyphosate spray of DV3 #43B x ET4-208 seedlings; format: in vivo; conditions: 500 and 800 g/ha on seedlings tolerant to bleaching herbicides; scored 14 and 28 DAT
[9] = tested on: pDV3 primary transformants (GOX/EPSPS tobacco); assay: Glyphosate spray test of pDV3 lines; format: in vivo, Nicotiana tabaccum var Samsun; parameters: scale not given here
Experimental: as §1, §2

[10] = tested on: plants transformed with the Synechocystis sp. PCC6803 4-HPPD gene; assay: Explant bleaching test on MS agar, 4-HPPD transformants (Example 2); format: in vivo, Potato and tomato; conditions: subset of ZA1296 resistant plants
[11] = tested on: tobacco plants transformed with the Pseudomonas 4-HPPD gene; assay: Explant bleaching test on MS agar, 4-HPPD transformants (Example 1); format: in vivo, Nicotiana tabacum var Samsun; conditions: subset of ZA1296 resistant plants
[12] = no pre-em, third line (plant not given)

CC(C)N.O=C(O)CNCP(=O)(O)O [Glyphosate isopropylamine]
Growth of explant [1]: No growth in any organ

O=C(O)CNCP(=O)(O)O [Glyphosate, glyphosate]
replicate score for damage, replicate a [2]: 75 and 100
replicate score for damage, replicate b [2]: 0
replicate score for damage, replicate c [2]: 0
replicate score for damage, replicate d [2]: 0 and 95
tolerance to spray [3]: demonstrate tolerance
growth on tissue culture medium [4]: grow successfully
dose/response to glyphosate spray (damage) ([5]; 12.33 g/ha): 2
dose/response to glyphosate spray (damage) ([5]; 37 g/ha): 3
dose/response to glyphosate spray (damage) ([5]; 100 g/ha): 20
dose/response to glyphosate spray (damage) ([5]; 300 g/ha): 80
dose/response to glyphosate spray (damage) ([5]; 1000 g/ha): 93
% Phytotoxicity (mean, 21 DAT) ([6]; Wild type, no pre-em treatment): 86.25%
replicate score for damage, replicate a [6, 12]: 90
replicate score for damage, replicate b [6, 12]: 90
replicate score for damage, replicate c [6, 12]: 90
replicate score for damage, replicate d [6, 12]: 75
growth on tissue culture medium [7]: fail to
resistance to post-emergence spray [8]: resistant
dose/response to glyphosate spray (damage) ([9]; pDV3 #11, 100 g/ha): 0
dose/response to glyphosate spray (damage) ([9]; pDV3 #11, 300 g/ha): 0
dose/response to glyphosate spray (damage) ([9]; pDV3 #11, 1000 g/ha): 25
dose/response to glyphosate spray (damage) ([9]; pDV3 #11, 3000 g/ha): 70
dose/response to glyphosate spray (damage) ([9]; pDV3 #11, 9000 g/ha): 80
dose/response to glyphosate spray (damage) ([9]; pDV3 #14, 100 g/ha): 7
dose/response to glyphosate spray (damage) ([9]; pDV3 #14, 300 g/ha): 22
dose/response to glyphosate spray (damage) ([9]; pDV3 #14, 1000 g/ha): 13
dose/response to glyphosate spray (damage) ([9]; pDV3 #14, 3000 g/ha): 33
dose/response to glyphosate spray (damage) ([9]; pDV3 #14, 9000 g/ha): 76
dose/response to glyphosate spray (damage) ([9]; pDV3 #19, 100 g/ha): 0
dose/response to glyphosate spray (damage) ([9]; pDV3 #19, 300 g/ha): 0
dose/response to glyphosate spray (damage) ([9]; pDV3 #19, 1000 g/ha): 0
dose/response to glyphosate spray (damage) ([9]; pDV3 #19, 3000 g/ha): 35
dose/response to glyphosate spray (damage) ([9]; pDV3 #19, 9000 g/ha): 80
dose/response to glyphosate spray (damage) ([9]; pDV3 #21, 100 g/ha): 0
dose/response to glyphosate spray (damage) ([9]; pDV3 #21, 300 g/ha): 5
dose/response to glyphosate spray (damage) ([9]; pDV3 #21, 1000 g/ha): 0
dose/response to glyphosate spray (damage) ([9]; pDV3 #21, 3000 g/ha): 24
dose/response to glyphosate spray (damage) ([9]; pDV3 #21, 9000 g/ha): 78
dose/response to glyphosate spray (damage) ([9]; pDV3 #31, 100 g/ha): 12
dose/response to glyphosate spray (damage) ([9]; pDV3 #31, 300 g/ha): 0
dose/response to glyphosate spray (damage) ([9]; pDV3 #31, 1000 g/ha): 4
dose/response to glyphosate spray (damage) ([9]; pDV3 #31, 3000 g/ha): 26
dose/response to glyphosate spray (damage) ([9]; pDV3 #31, 9000 g/ha): 78
dose/response to glyphosate spray (damage) ([9]; pDV3 #34, 100 g/ha): 0
dose/response to glyphosate spray (damage) ([9]; pDV3 #34, 300 g/ha): 0
dose/response to glyphosate spray (damage) ([9]; pDV3 #34, 1000 g/ha): 6
dose/response to glyphosate spray (damage) ([9]; pDV3 #34, 3000 g/ha): 30
dose/response to glyphosate spray (damage) ([9]; pDV3 #34, 9000 g/ha): 63
dose/response to glyphosate spray (damage) ([9]; pDV3 #36, 100 g/ha): 0
dose/response to glyphosate spray (damage) ([9]; pDV3 #36, 300 g/ha): 0
dose/response to glyphosate spray (damage) ([9]; pDV3 #36, 1000 g/ha): 0
dose/response to glyphosate spray (damage) ([9]; pDV3 #36, 3000 g/ha): 0
dose/response to glyphosate spray (damage) ([9]; pDV3 #36, 9000 g/ha): 0
dose/response to glyphosate spray (damage) ([9]; pDV3 #37, 100 g/ha): 0
dose/response to glyphosate spray (damage) ([9]; pDV3 #37, 300 g/ha): 0
dose/response to glyphosate spray (damage) ([9]; pDV3 #37, 1000 g/ha): 9
dose/response to glyphosate spray (damage) ([9]; pDV3 #37, 3000 g/ha): 24
dose/response to glyphosate spray (damage) ([9]; pDV3 #37, 9000 g/ha): 72
dose/response to glyphosate spray (damage) ([9]; pDV3 #43, 100 g/ha): 0
dose/response to glyphosate spray (damage) ([9]; pDV3 #43, 300 g/ha): 0
dose/response to glyphosate spray (damage) ([9]; pDV3 #43, 1000 g/ha): 0
dose/response to glyphosate spray (damage) ([9]; pDV3 #43, 3000 g/ha): 6
dose/response to glyphosate spray (damage) ([9]; pDV3 #43, 9000 g/ha): 73
dose/response to glyphosate spray (damage) ([9]; pDV3 #44, 100 g/ha): 0
dose/response to glyphosate spray (damage) ([9]; pDV3 #44, 300 g/ha): 40
dose/response to glyphosate spray (damage) ([9]; pDV3 #44, 1000 g/ha): 45
dose/response to glyphosate spray (damage) ([9]; pDV3 #44, 3000 g/ha): 78
dose/response to glyphosate spray (damage) ([9]; pDV3 #44, 9000 g/ha): 85
dose/response to glyphosate spray (damage) ([9]; pDV3 #45, 100 g/ha): 0
dose/response to glyphosate spray (damage) ([9]; pDV3 #45, 300 g/ha): 0
dose/response to glyphosate spray (damage) ([9]; pDV3 #45, 1000 g/ha): 3
dose/response to glyphosate spray (damage) ([9]; pDV3 #45, 3000 g/ha): 9
dose/response to glyphosate spray (damage) ([9]; pDV3 #45, 9000 g/ha): 70
dose/response to glyphosate spray (damage) ([9]; pDV3 #47, 100 g/ha): 5
dose/response to glyphosate spray (damage) ([9]; pDV3 #47, 300 g/ha): 0
dose/response to glyphosate spray (damage) ([9]; pDV3 #47, 1000 g/ha): 0
dose/response to glyphosate spray (damage) ([9]; pDV3 #47, 3000 g/ha): 11
dose/response to glyphosate spray (damage) ([9]; pDV3 #47, 9000 g/ha): 72
dose/response to glyphosate spray (damage) ([9]; pDV3 #60, 100 g/ha): 0
dose/response to glyphosate spray (damage) ([9]; pDV3 #60, 300 g/ha): 0
dose/response to glyphosate spray (damage) ([9]; pDV3 #60, 1000 g/ha): 0
dose/response to glyphosate spray (damage) ([9]; pDV3 #60, 3000 g/ha): 19
dose/response to glyphosate spray (damage) ([9]; pDV3 #60, 9000 g/ha): 63
dose/response to glyphosate spray (damage) ([9]; pDV3 #64, 100 g/ha): 0
dose/response to glyphosate spray (damage) ([9]; pDV3 #64, 300 g/ha): 5
dose/response to glyphosate spray (damage) ([9]; pDV3 #64, 1000 g/ha): 0
dose/response to glyphosate spray (damage) ([9]; pDV3 #64, 3000 g/ha): 12
dose/response to glyphosate spray (damage) ([9]; pDV3 #64, 9000 g/ha): 63

CS(=O)(=O)c1cc(C(F)(F)F)ccc1C(=O)c1cnoc1C1CC1 [Isoxaflutole, 5-cyclopropyl-4-(2-methylsulphonyl-4-trifluoromethylbenzoyl)isoxazole]
resistance of the herbicide resistant transgenic plants [10]: resistant
resistance of the herbicide resistant transgenic plants [11]: even more resistant

Reference: patent US20030041357A1, “Herbicide resistant plants” (priority 1996, published 2003)
